# Patent US20080299638A1 (priority 2004, published 2008)
# Where “and” joins values, the source holds several entries; their conditions need not be identical. Equal values may be shown once.
# Columns and labels:
# [1] = system: 2.2.15 cells; test: Arginase toxicity to cells (CPE method, Reed-Muench); assay type: cell-based, human; settings: 8 days drug addition
# Protocol: Divide experiment into control group and test groups with different drug concentration. Digest cells, dilute to 200,000 cells/ml, transfer to culture plate, 100 μl per well for 96-well plate, incubate for 24 hours under 5% CO2 at 37° C., ready for experiment when cells grown into monolayer. […] Observe cytopathological changes, 8 days or 4 days under microscope, totally destroyed is 4; 75% destroyed is 3; 50% destroyed is 2, 25% destroyed is 1; no changes is 0. Calculate TC50 and TC0 according to Reed-Muench Method:
# A=log>50% drug concentration; B=log<50% drug concentration; C=log times of dilution
# Starting from 40 IU/ml and subsequently 20, 10, 5, 2.5 IU/ml, change drug solution every 4 days until 8 days, observe cytopathological changes under microscope, and check for CPE with microscope.
# [2] = system: HBeAg; test: Suppression of HBeAg secretion in 2.2.15 cells (radioimmunoassay, cpm); assay type: cell-based, hepatitis B virus
# Protocol: (§1) Grow 200000 cells/ml 2.2.15 cell on 24-well plate, 1 ml per well, incubate for 24 hours under 5% CO2 at 37° C. […] 4 wells per concentration, incubate under 5% CO2 at 37° C., change drug solution every 4 days with the same concentration, retrieve culture medium at day 8, preserve at −20° C. Repeat experiment for 2 batches, test for HBsAg and HBeAg separately. Check cpm value for each wells using γ-counter.
# (§2) Calculating drug effectiveness: calculate the mean and standard deviation of cpm from the cell control group and groups with different drug concentration, P/N value and percent suppression, IC50 and SI. • (1)
# (§3) [formula] • (2) Calculate IC50 for drug suppression of antigen:
# (§4) [formula] • (4) Calculate the cpm differences between HBsAg and HBeAg in different dilutions and control groups by t-test.
# [3] = system: HBsAg; test: Suppression of HBsAg secretion in 2.2.15 cells (radioimmunoassay, cpm); assay type: cell-based, hepatitis B virus
# Protocol: as §1, §2, §3, §4
# [4] = system: HBV-DNA in supernatant of 2.2.15 cell culture; test: HBV-DNA dot blot in supernatant of 2.2.15 cell culture; assay type: cell-based, hepatitis B virus; settings: day 8; for HBV-DNA in cell culture supernatant, CPM: control 3808.34
# Protocol: Extraction of HBV-DNA from 2.2.15 cells supernatant: Grow 200000 cells/ml 2.2.15 cell on 24-well plate, 1 ml per well, add drugs after 24 hours incubation, change drug solution every 4 days with the same concentration, collect supernatant from cell culture after 8 days of incubation counted from the day drugs added into the culture, precipitate with polyethylene glycol, digest with proteinase K, extract with phenol:chloroform:isopentanol, nucleic acid precipitation by absolute ethanol and so on procedures, vacuum dry, re-dissolve in TE buffer as sample.
# Dot blot: place dots: take 20 μl sample (contains 25 μg DNA), denature, neutralize, serial dilute 20×SSC buffer to 1:8 dilution on nitrocellulose membrane, oven dry, pre-hybridize, hybridize, wash membrane, radioactive self exposure and so on procedures. Develop X ray film with conventional method. Scan developed film with scanner, measure density with gel-pro software, calculate suppression rate and IC50.
# [5] = Lamivudine 50 μg/ml, batch 1, day 8
# [6] = Lamivudine 50 μg/ml, batch 2, day 8
# [7] = Lamivudine 50 μg/ml, two batches average, day 8
# [8] = Lamivudine 50 μg/ml, two batches average, day 8, listed as lamivudine
# [9] = Lamivudine 100 μg/ml, batch 1, day 8
# [10] = Lamivudine 100 μg/ml, batch 2, day 8
# [11] = Lamivudine 100 μg/ml, two batches average, day 8
# [12] = Lamivudine 100 μg/ml, two batches average, day 8, listed as lamivudine
# [13] = Lamivudine 200 μg/ml, batch 1, day 8
# [14] = Lamivudine 200 μg/ml, batch 2, day 8
# [15] = Lamivudine 200 μg/ml, two batches average, day 8
# [16] = Lamivudine 200 μg/ml, two batches average, day 8, listed as lamivudine
# [17] = Lamivudine 400 μg/ml, batch 1, day 8
# [18] = Lamivudine 400 μg/ml, batch 2, day 8
# [19] = Lamivudine 400 μg/ml, two batches average, day 8
# [20] = Lamivudine 400 μg/ml, two batches average, day 8, listed as lamivudine
# [21] = Lamivudine 800 μg/ml, batch 1, day 8
# [22] = Lamivudine 800 μg/ml, batch 2, day 8
# [23] = Lamivudine 800 μg/ml, two batches average, day 8
# [24] = Lamivudine 800 μg/ml, two batches average, day 8, listed as lamivudine
compound,measurement,setting,value
"Nc1ccn([C@@H]2CS[C@H](CO)O2)c(=O)n1 [Lamivudine, lamivudine, reference compound]",TC0,[1],800 ± 0 µg/mL
same,TC50,[1],1198.97 µg/mL
same,TC0,[1]; listed as lamivudine,800 ± 0 µg/mL
same,TC50,[1]; listed as lamivudine,1198.97 ± 97.50 µg/mL and 1198.97 µg/mL
same,IC50,"[2]; Hepatitis B virus, 192 h, read-out: HBeAg IC50",> 800 µg/mL
same,HBeAg (CPM) % suppression,[2]; [5],13.20%
same,HBeAg (CPM) % suppression,[2]; [6],14.99%
same,HBeAg (CPM) % suppression,[2]; [7],14.10 ± 1.27%
same,HBeAg (CPM) % suppression,[2]; [8],14.10±1.27%
same,HBeAg (CPM) % suppression,[2]; [9],17.48%
same,HBeAg (CPM) % suppression,[2]; [10],14.19%
same,HBeAg (CPM) % suppression,[2]; [11],15.84 ± 2.33%
same,HBeAg (CPM) % suppression,[2]; [12],15.84±2.33%
same,HBeAg (CPM) % suppression,[2]; [13],16.35%
same,HBeAg (CPM) % suppression,[2]; [14],19.31%
same,HBeAg (CPM) % suppression,[2]; [15],17.83 ± 2.09%
same,HBeAg (CPM) % suppression,[2]; [16],17.83±2.09%
same,HBeAg (CPM) % suppression,[2]; [17],12.67%
same,HBeAg (CPM) % suppression,[2]; [18],13.32%
same,HBeAg (CPM) % suppression,[2]; [19],12.99 ± 0.46%
same,HBeAg (CPM) % suppression,[2]; [20],12.99±0.46%
same,HBeAg (CPM) % suppression,[2]; [21],6.10%
same,HBeAg (CPM) % suppression,[2]; [22],10.37%
same,HBeAg (CPM) % suppression,[2]; [23],8.23 ± 3.02%
same,HBeAg (CPM) % suppression,[2]; [24],8.23±3.02%
same,HBeAg IC50,"[2]; batch 1, day 8",>800 µg/mL
same,HBeAg IC50,"[2]; two batches average, day 8",>800 ± 0 TC0 800 μg/ml and >800 μg/ml
same,IC50,"[3]; Hepatitis B virus, 192 h, read-out: HBsAg IC50",> 800 µg/mL
same,HBsAg (CPM) % suppression,[3]; [5],6.24%
same,HBsAg (CPM) % suppression,[3]; [6],0.65%
same,HBsAg (CPM) % suppression,[3]; [7],3.45 ± 3.95%
same,HBsAg (CPM) % suppression,[3]; [8],3.45±3.95%
same,HBsAg (CPM) % suppression,[3]; [9],12.05%
same,HBsAg (CPM) % suppression,[3]; [10],5.15%
same,HBsAg (CPM) % suppression,[3]; [11],8.6 ± 4.88%
same,HBsAg (CPM) % suppression,[3]; [12],8.60±4.88%
same,HBsAg (CPM) % suppression,[3]; [13],2.35%
same,HBsAg (CPM) % suppression,[3]; [14],8.99%
same,HBsAg (CPM) % suppression,[3]; [15],5.67 ± 4.7%
same,HBsAg (CPM) % suppression,[3]; [16],5.67±4.70%
same,HBsAg (CPM) % suppression,[3]; [17],8.10%
same,HBsAg (CPM) % suppression,[3]; [18],0%
same,HBsAg (CPM) % suppression,[3]; [19],4.05 ± 5.73%
same,HBsAg (CPM) % suppression,[3]; [20],4.05±5.73%
same,HBsAg (CPM) % suppression,[3]; [21],0%
same,HBsAg (CPM) % suppression,[3]; [22],9.299%
same,HBsAg (CPM) % suppression,[3]; [23],4.65 ± 6.58%
same,HBsAg (CPM) % suppression,[3]; [24],4.65±6.58%
same,HBsAg IC50,"[3]; batch 1, day 8",>800 µg/mL
same,HBsAg IC50,"[3]; two batches average, day 8",>800 ± 0 TC0 μg/ml and >800 μg/ml
same,IC50,"[4]; Hepatitis B virus, 192 h, first batch experiment",114 µg/mL
same,% suppression of HBV-DNA in cell culture supernatant,[4]; Lamivudine 50 μg/ml,25.6576%
same,"HBV-DNA in cell culture supernatant, CPM",[4]; Lamivudine 50 μg/ml,2831.21 CPM
same,% suppression of HBV-DNA in cell culture supernatant,[4]; Lamivudine 100 μg/ml,61.5237%
same,"HBV-DNA in cell culture supernatant, CPM",[4]; Lamivudine 100 μg/ml,1465.31 CPM
same,% suppression of HBV-DNA in cell culture supernatant,[4]; Lamivudine 200 μg/ml,71.6404%
same,"HBV-DNA in cell culture supernatant, CPM",[4]; Lamivudine 200 μg/ml,1080.03 CPM
same,% suppression of HBV-DNA in cell culture supernatant,[4]; Lamivudine 400 μg/ml,79.1083%
same,"HBV-DNA in cell culture supernatant, CPM",[4]; Lamivudine 400 μg/ml,795.628 CPM
same,% suppression of HBV-DNA in cell culture supernatant,[4]; Lamivudine 800 μg/ml,82.5905%
same,"HBV-DNA in cell culture supernatant, CPM",[4]; Lamivudine 800 μg/ml,663.013 CPM
